Values quoted from earlier work in paper PMC7259638, “Characterization of the intestinal absorption of morroniside from Cornus officinalis Sieb. et Zucc via a Caco-2 cell monolayer model” (PLoS ONE, 2020).

Test system: Caco-2 cell model
Design: method as in PMID 30671130
Settings: cited from earlier work

For COC(=O)C1=CO[C@@H](O[C@@H]2O[C@H](CO)[C@@H](O)[C@H](O)[C@H]2O)[C@@H]2[C@@H](C)[C@@H](O)C[C@H]12 [loganin], the “intestinal permeability (in words)” value (human intestinal Caco-2 cell model) is listed as “good intestinal permeability” and the BCRP substrate status (previous study) is listed as “substrate of BCRP”.
